Values of other authors, collected in patent publication US20260263463A1, “FORMULATIONS OF DANICOPAN AND METHODS OF USE THEREOF” (Alexion Pharmaceuticals, Inc., priority 2023, published 2026).

Details: doses of up to 1,600 mg; cited from earlier work

**Q.** For `CC(=O)c1nn(CC(=O)N2C[C@H](F)C[C@H]2C(=O)Nc2cccc(Br)n2)c2ccc(-c3cnc(C)nc3)cc12` [Danicopan, danicopan], which adverse effects is on record?
**A.** no adverse effects
